Where two headings read alike, the source gives them in different places.
Target: human α7 nAChR (Homo sapiens (Human), UniProt P36544)
Assay: Automated patch-clamp electrophysiology functional assay (Assay A), IonFlux HT
Format: cell-based
Details: HEK cell line stably expressing human RIC-3 and human α7, whole-cell population patch, 40 μM acetylcholine
Method: The α7 nAChR positive allosteric modulator (PAM) activity of the present compounds may be tested using assays known in the art. The α7 nAChR PAMs described herein have activities in an automated patch-clamp electrophysiology functional assay as described in the examples. The assay was performed using the IonFlux HT in a whole-cell, population patch configuration. See Golden et al. Assay Drug Dev. Technol. (2011) 9:608-619. The compounds were assessed for their ability to modulate the function of the human α7 nAChR stably expressed in a HEK cell line both in the presence, and in the absence of the natural α7 agonist acetylcholine. By performing a series of such measurements at different concentrations, the effective concentration of the α7 nAChR PAMs (EC50) was determined. See Spencer et al. Assay Drug Dev. Technol. (2012) 10:313-324.
Automated patch-clamp electrophysiology was performed using the IonFlux HT (Fluxion Biosciences Inc., San Francisco, Calif.) in the whole-cell, population patch configuration. Test compounds were assessed for their ability to modulate the function of the α7 nicotinic acetylcholine receptor both in the presence, and in the absence of the natural α7 agonist acetylcholine. A HEK cell line stably expressing both human RIC-3 and human α7 (PrecisION hnAChR α7/RIC-3, Eurofins Pharma, St. Charles, Mo.) was cultured in 175 cm^2 triple-layer tissue culture flasks to no more than 90% confluency in DMEM/F-12 growth media supplemented with 10% heat-inactivated fetal bovine serum, 1% non-essential amino acids, 0.625 μg/mL Puromycin, and 400 μg/mL Geneticin. Immediately prior to assay, cells were detached by first aspirating growth media, rinsing with Dulbecco's phosphate buffered saline, and then adding 10 mL of Accutase (Innovative Cell Technologies, San Diego, Calif.) to the flask and then incubating at 37° C. for 5 minutes. Detached cells were then recovered by the addition of 40 mL of CHO-serum-free media supplemented with 25 mM HEPES, and rocked gently in a 50 mL conical tube for 20 minutes prior to patch-clamp assay. After recovery, cells were pelleted by centrifugation at 1,000 RPM for 1 minute in a compact bench top centrifuge; recovery media was aspirated and cells were resuspended in external recording solution (150 mM NaCl, 5 mM KCl, 2 mM CaCl2, 1 mM MgCl2, 10 mM HEPES, 12 mM dextrose) to a density of 5.0×10^6 cells/mL. The cell suspension was added to the cell inlet wells on an IonFlux HT population patch plate which had previously been rinsed and primed with deionized H2O. Test compounds were serially diluted in DMSO and then resuspended to the final test concentration in external recording solution, with, or without 40 μM acetylcholine added to the external recording solution; test compounds were then transferred to the IonFlux HT population patch plate. Internal recording solution (110 mM TrisPO4, 28 mM TrisBase, 0.1 mM CaCl2, 2 mM MgCl2, 11 mM EGTA, 4 mM MgATP) was added to the internal recording solution inlet wells on the IonFlux HT patch plate previously loaded with cells and test compounds, and the plate loaded into the IonFlux HT instrument. A protocol was executed on the IonFlux HT to trap the cells, break into the cells, and establish the whole-cell recording configuration; cells were voltage-clamped at a holding potential of −60 mV for the duration of the experiment, all experiments were conducted at room temperature, and the IonFlux HT injection pressure was 8 psi for solution applications. Upon establishing the whole-cell configuration, external recording solution was perfused into the recording chambers for 120 seconds and then 40 μM acetylcholine was applied for 1 second and immediately washed off with external recording solution for 60 seconds. The 40 μM acetylcholine-evoked α7 current served as the current response to which subsequent test compound effects, in the presence, or in the absence of 40 μM acetylcholine would be quantified relative to. […]

Sequence of human α7 nAChR (P36544 23-502): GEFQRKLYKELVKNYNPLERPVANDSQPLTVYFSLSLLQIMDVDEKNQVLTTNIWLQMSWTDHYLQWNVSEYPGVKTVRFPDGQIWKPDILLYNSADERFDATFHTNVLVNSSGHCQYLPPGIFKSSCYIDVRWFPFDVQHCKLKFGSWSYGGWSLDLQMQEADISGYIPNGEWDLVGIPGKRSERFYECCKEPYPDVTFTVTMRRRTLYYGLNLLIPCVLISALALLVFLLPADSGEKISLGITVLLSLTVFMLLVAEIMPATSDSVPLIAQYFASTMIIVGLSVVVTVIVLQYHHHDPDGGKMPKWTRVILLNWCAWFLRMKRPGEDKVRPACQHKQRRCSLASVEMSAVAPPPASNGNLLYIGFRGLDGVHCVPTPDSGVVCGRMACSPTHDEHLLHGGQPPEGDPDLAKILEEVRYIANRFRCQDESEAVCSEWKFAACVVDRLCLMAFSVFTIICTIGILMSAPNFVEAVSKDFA

Compound	EC50 (read-out: α7 nAChR Potency)	EC50 (read-out: α7 nAChR EC50)
NS(=O)(=O)c1ccc([C@@H]2C[C@H]2c2ccnc(N3CCOCC3)n2)cc1 (relative stereo) [Example 2, 4-{trans-2-[2-(Morpholin-4-yl)pyrimidin-4-yl]cyclopropyl}benzenesulfonamide]	500 to 5000 nM	–
NS(=O)(=O)c1ccc([C@@H]2C[C@H]2c2ccc(N3CCCC3)nc2)cc1 (relative stereo) [Example 6, 4-{trans-2-[6-(Pyrrolidin-1-yl)pyridin-3-yl]cyclopropyl}benzenesulfonamide]	500 to 5000 nM	720 nM
Cc1nc(-c2cccc([C@@H]3C[C@H]3c3ccc(S(N)(=O)=O)cc3)c2)no1 (relative stereo) [Example 7, 4-{trans-2-[3-(5-Methyl-1,2,4-oxadiazol-3-yl)phenyl]cyclopropyl}benzenesulfonamide]	100 to 500 nM	320 nM
CC(C)c1cccc(C2CC2c2ccc(S(N)(=O)=O)cc2)n1 (single isomer, unassigned) [Example 1, 4-{trans-2-[6-(Propan-2-yl)pyridin-2-yl]cyclopropyl}benzenesulfonamide]	100 to 500 nM	500 nM
NS(=O)(=O)c1ccc(C2CC2c2cccc(C3CCCC3)n2)cc1 (single isomer, unassigned) [Example 3, 4-[trans-2-(6-Cyclopentylpyridin-2-yl)cyclopropyl]benzenesulfonamide]	500 to 5000 nM	1500 nM
NS(=O)(=O)c1ccc(C2CC2c2ccc(C3CCCC3)cn2)cc1 (single isomer, unassigned) [Example 4, 4-[trans-2-(5-Cyclopentylpyridin-2-yl)cyclopropyl]benzenesulfonamide]	500 to 5000 nM	1000 nM
CC(C)c1ccnc(C2CC2c2ccc(S(N)(=O)=O)cc2)n1 (single isomer, unassigned) [Example 5, 4-{trans-2-[4-(Propan-2-yl)pyrimidin-2-yl]cyclopropyl}benzenesulfonamide]	100 to 500 nM	410 nM
CC(C)c1cc(C2CC2c2ccc(S(N)(=O)=O)cc2)ccn1 (single isomer, unassigned) [Example 8, 4-{trans-2-[2-(Propan-2-yl)pyridin-4-yl]cyclopropyl}benzenesulfonamide]	500 to 5000 nM	1200 nM
NS(=O)(=O)c1ccc(C2CC2c2nccc(-c3cccc(F)c3)n2)cc1 (single isomer, unassigned) [Example 10, 4-{trans-2-[4-(3-Fluorophenyl)pyrimidin-2-yl]cyclopropyl}benzenesulfonamide]	100 to 500 nM	210 nM
CC1(C)[C@H](c2ccc(S(N)(=O)=O)cc2)[C@H]1c1nccc(-c2cncc(C(F)(F)F)c2)n1 [Example 9, 4-[(1R,3R)-2,2-Dimethyl-3-{4-[5-(trifluoromethyl)pyridin-3-yl]pyrimidin-2-yl}cyclopropyl]benzenesulfonamide]	500 to 5000 nM	1400 nM
CC(C)c1ccc(C2C(c3ccc(S(N)(=O)=O)cc3)C2[Si](C)(C)C)cn1 (stereo not shown) [Example B1, 4-{2-[6-(Propan-2-yl)pyridin-3-yl]-3-(trimethylsilyl)cyclopropyl}benzenesulfonamide]	500 to 5000 nM	1600 nM
tert-Butyl 4-{4-[trans-2-(4-sulfamoylphenyl)cyclopropyl]pyrimidin-2-yl}piperazine-1-carboxylate [Example D4]	500 to 5000 nM	720 nM

More lines, now with the values ahead:

EC50 (read-out: α7 nAChR Potency)	EC50 (read-out: α7 nAChR EC50)	Compound
100 to 500 nM	240 nM	NS(=O)(=O)c1ccc(C2CC2c2nccc(-c3cncc(C(F)(F)F)c3)n2)cc1 (single isomer, unassigned) [Example 11, 4-(trans-2-{4-[5-(Trifluoromethyl)pyridin-3-yl]pyrimidin-2-yl}cyclopropyl)benzenesulfonamide]
500 to 5000 nM	–	CC(C)c1cccc(C2CC2c2ccc(S(N)(=O)=O)cc2)n1 (single isomer, unassigned) [Example A1, 4-{trans-2-[6-(Propan-2-yl)pyridin-2-yl]cyclopropyl}benzenesulfonamide]
100 to 500 nM	410 nM	CC(C)c1ccnc(C2CC2c2ccc(S(N)(=O)=O)cc2)c1 (single isomer, unassigned) [Example A2, 4-{trans-2-[4-(Propan-2-yl)pyridin-2-yl]cyclopropyl}benzenesulfonamide]
500 to 5000 nM	550 nM	CC(C)c1ccc(C2CC2c2ccc(S(N)(=O)=O)cc2)nc1 (single isomer, unassigned) [Example A3, 4-{trans-2-[5-(Propan-2-yl)pyridin-2-yl]cyclopropyl}benzenesulfonamide]
500 to 5000 nM	–	NS(=O)(=O)c1ccc([C@@H]2C[C@H]2c2cccc(C3CCCC3)n2)cc1 (single isomer, unassigned) [Example A4, 4-[trans-2-(6-Cyclopentylpyridin-2-yl)cyclopropyl]benzenesulfonamide]
500 to 5000 nM	–	CC(C)c1ccc(C2CC2c2ccc(S(N)(=O)=O)cc2)nc1 (single isomer, unassigned) [Example A5, 4-{trans-2-[5-(Propan-2-yl)pyridin-2-yl]cyclopropyl}benzenesulfonamide]
100 to 500 nM	280 nM	CC(C)c1cnc(C2CC2c2ccc(S(N)(=O)=O)cc2)nc1 (single isomer, unassigned) [Example C1, 4-{trans-2-[5-(Propan-2-yl)pyrimidin-2-yl]cyclopropyl}benzenesulfonamide]
500 to 5000 nM	1900 nM	NS(=O)(=O)c1ccc([C@@H]2C[C@H]2c2nccc(-c3cccc(F)c3)n2)cc1 (single isomer, unassigned) [Example C4, 4-{trans-2-[4-(3-fluorophenyl)pyrimidin-2-yl]cyclopropyl}benzenesulfonamide]
500 to 5000 nM	3300 nM	NS(=O)(=O)c1ccc([C@@H]2C[C@H]2c2nccc(-c3cncc(C(F)(F)F)c3)n2)cc1 (single isomer, unassigned) [Example C5, 4-(trans-2-{4-[5-(trifluoromethyl)pyridin-3-yl]pyrimidin-2-yl}cyclopropyl)benzenesulfonamide]
500 to 5000 nM	1600 nM	NS(=O)(=O)c1ccc([C@H]2[C@H](c3nccc(-c4cccc(F)c4)n3)C2(F)F)cc1 [Example C6, 4-{(1R,3R)-2,2-Difluoro-3-[4-(3-fluorophenyl)pyrimidin-2-yl]cyclopropyl}benzenesulfonamide]
